The subject of this experiment is P388 leukemia ip, CD2F1 mice, survival T/C. Description: NCI In Vivo Anticancer Drug Screen. Data for tumor model P388 Leukemia (intraperitoneal) in CD2F1 (CDF1) mice. Conditions: endpoint: median survival time, higher = longer survival. The method in brief: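 Mice carrying the transplanted tumor received test compound or vehicle. Survival was recorded in each group, and the value is the treated-group measurement divided by that of the vehicle-treated control group.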

[1] abbreviates: dose: 50.0 mg/kg/injection, schedule: Q01DX005 (ip), vehicle: saline with Tween-80.
[2] abbreviates: dose: 60.0 mg/kg/injection, schedule: Q01DX005 (ip), vehicle: saline with Tween-80.
Setting [3] is: dose: 120.0 mg/kg/injection, schedule: Q01DX005 (ip), vehicle: saline with Tween-80.
Where [4] appears, read: dose: 240.0 mg/kg/injection, schedule: Q01DX005 (ip), vehicle: saline with Tween-80.
[5] abbreviates: dose: 25.0 mg/kg/injection, schedule: Q01DX009 (ip), vehicle: saline with Tween-80.
The mark [6] stands for this setting: dose: 50.0 mg/kg/injection, schedule: Q01DX009 (ip), vehicle: saline with Tween-80.
The mark [7] stands for this setting: dose: 50.0 mg/kg/injection, schedule: Q04DX002 (ip), vehicle: saline with Tween-80.
Where [8] appears, read: dose: 100.0 mg/kg/injection, schedule: Q01DX009 (ip), vehicle: saline with Tween-80.
Where [9] appears, read: dose: 100.0 mg/kg/injection, schedule: Q04DX002 (ip), vehicle: saline with Tween-80.
Setting [10] is: dose: 100.0 mg/kg/injection, schedule: Q01DX005 (ip), vehicle: saline with Tween-80.
Setting [11] is: dose: 200.0 mg/kg/injection, schedule: Q01DX005 (ip), vehicle: saline with Tween-80.
The mark [12] stands for this setting: dose: 100.0 mg/kg/injection, schedule: Q04DX003 (ip), vehicle: saline with Tween-80.
[13] abbreviates: dose: 200.0 mg/kg/injection, schedule: Q01DX009 (ip), vehicle: saline with Tween-80.
[14] abbreviates: dose: 200.0 mg/kg/injection, schedule: Q04DX003 (ip), vehicle: saline with Tween-80.
[15] abbreviates: dose: 12.5 mg/kg/injection, schedule: Q01DX009 (ip), vehicle: saline with Tween-80.
Where [16] appears, read: dose: 50.0 mg/kg/injection, schedule: Q01DX005 (ip), vehicle: Klucel (hydroxypropylcellulose) (HPC).
Setting [17] is: dose: 100.0 mg/kg/injection, schedule: Q01DX005 (ip), vehicle: Klucel (hydroxypropylcellulose) (HPC).

Values joined by “and” are separate entries in the source; they are usually repeats but may differ in a detail not shown here. Equal values may be shown once. Toxic doses and inconclusive results are not listed.

As for `O=C1c2cc(I)ccc2NC(O)c2cccn21` (stereo unspecified), the T/C is, setting by setting: (dose: 0.1 mg/kg/injection, schedule: Q01DX005 (ip), vehicle: water) 93 % of control; (dose: 0.2 mg/kg/injection, schedule: Q01DX005 (ip), vehicle: water) 93 % of control; (dose: 0.4 mg/kg/injection, schedule: Q01DX005 (ip), vehicle: water) 99 % of control; (dose: 0.8 mg/kg/injection, schedule: Q01DX005 (ip), vehicle: water) 100 % of control; (dose: 1.6 mg/kg/injection, schedule: Q01DX005 (ip), vehicle: water) 96 % of control; (dose: 5.0 mg/kg/injection, schedule: Q01DX005 (ip), vehicle: distilled water + Tween-80) 94 % of control. The T/C is 100 % of control (dose: 10.0 mg/kg/injection, schedule: Q01DX005 (ip), vehicle: distilled water + Tween-80); 99 % of control (dose: 20.0 mg/kg/injection, schedule: Q01DX005 (ip), vehicle: distilled water + Tween-80); 92 % of control (dose: 40.0 mg/kg/injection, schedule: Q01DX005 (ip), vehicle: distilled water + Tween-80); 93 % of control (dose: 80.0 mg/kg/injection, schedule: Q01DX005 (ip), vehicle: distilled water + Tween-80).
As to `O=C(Nc1ccccc1)c1c(O)[nH]c(=S)[nH]c1=O`, the T/C by setting is: (dose: 3.13 mg/kg/injection, schedule: Q01DX005 (ip), vehicle: saline with Tween-80) 110 % of control; (dose: 6.25 mg/kg/injection, schedule: Q01DX005 (ip), vehicle: saline with Tween-80) 116 % of control; (dose: 12.5 mg/kg/injection, schedule: Q01DX005 (ip), vehicle: saline with Tween-80) 120 % of control; under setting [1], 162 % of control and 201 % of control; (dose: 75.0 mg/kg/injection, schedule: Q01DX009 (ip), vehicle: saline with Tween-80) 210 % of control and 237 % of control and 240 % of control; (dose: 175.0 mg/kg/injection, schedule: Q01DX009 (ip), vehicle: saline with Tween-80) 283 % of control.
Consider `CC(=O)C1C(=O)C(=O)N(c2ccc(S(N)(=O)=O)cc2)C1=O` (stereo unspecified), for which the T/C is, setting by setting: under setting [2], 103 % of control; under setting [3], 104 % of control; under setting [4], 118 % of control.
Regarding `Nc1nc(N)nc(-c2cccs2)n1`, the T/C under setting [5] was 92 % of control; the T/C under setting [6] is 101 % of control; the T/C under setting [7] is 92 % of control; the T/C under setting [8] was 100 % of control; the T/C under setting [9] was 90 % of control; the T/C (dose: 200.0 mg/kg/injection, schedule: Q04DX002 (ip), vehicle: saline with Tween-80) was 106 % of control.
Turning to `O=C(NC(Cc1ccccc1)C(=O)O)C(=O)c1c[nH]c2ccc(Cl)cc12` (stereo unspecified), the T/C was 100 % of control under setting [2], 96 % of control under setting [3] and 94 % of control under setting [4].
Turning to `CCN(CCO)CCNc1ccc(C)c2sc3cc(OC)ccc3c(=O)c12`, the T/C by setting is: under setting [1], 102 % of control and 103 % of control and 107 % of control; under setting [10], 106 % of control and 112 % of control and 117 % of control; under setting [11], 103 % of control and 119 % of control; (dose: 400.0 mg/kg/injection, schedule: Q01DX005 (ip), vehicle: saline with Tween-80) 115 % of control.
Consider `Cc1cccc(N=NC2Sc3nc4ccccc4n3C2=O)c1` (stereo unspecified), for which the T/C reads like this: (dose: 60.0 mg/kg/injection, schedule: Q01DX005 (ip), vehicle: Klucel (hydroxypropylcellulose) (HPC)) 89 % of control; (dose: 120.0 mg/kg/injection, schedule: Q01DX005 (ip), vehicle: Klucel (hydroxypropylcellulose) (HPC)) 91 % of control.
Consider `CNc1ccc2c(c1)C(=O)c1c(C)n(C)c3cccc-2c13`, for which, under setting [1], the T/C is 98 % of control.
With `Cn1c(=O)c2nncnc2n(C)c1=O`, the T/C (dose: 25.0 mg/kg/injection, schedule: Q01DX005 (ip), vehicle: saline with Tween-80) was 96 % of control; the T/C under setting [1] is 93 % of control; the T/C under setting [10] is 93 % of control; the T/C under setting [11] is 94 % of control.
Regarding `O=C(O)c1ccc(N/N=C/C(F)(F)F)cc1`, the T/C runs as follows: (dose: 60.0 mg/kg/injection, schedule: Q01DX005 (ip), vehicle: saline + Tween-80 + alcohol) 96 % of control; (dose: 120.0 mg/kg/injection, schedule: Q01DX005 (ip), vehicle: saline + Tween-80 + alcohol) 94 % of control; (dose: 240.0 mg/kg/injection, schedule: Q01DX005 (ip), vehicle: saline + Tween-80 + alcohol) 102 % of control.
In the case of `C[n+]1c(/C=N/NC(N)=S)ccc2ccccc21`, the T/C under setting [8] is 118 % of control.
With `O=NN(CCCl)C(=O)Nc1ccc(Br)cn1`, the T/C was 100 % of control (dose: 50.0 mg/kg/injection, schedule: Q04DX003 (ip), vehicle: saline with Tween-80); 150 % of control under setting [8]; 100 % of control under setting [12]; 150 % of control under setting [13]; 118 % of control under setting [14].
For the compound `Cc1c(-c2ccccc2)ccnc1/C=N/NC(=S)NCc1cccnc1`, the T/C was 98 % of control under setting [15]; 96 % of control under setting [5]; 111 % of control and 122 % of control under setting [6]; 88 % of control under setting [8].
In the case of `O=C1C(Cl)=C(Nc2ccc3c(c2NC2=C(Cl)C(=O)c4ccccc4C2=O)C(=O)c2ccccc2C3=O)C(=O)c2ccccc21`, the T/C was 97 % of control under setting [16] and 99 % of control under setting [17].
Consider `C[Si](C)(OC(=O)N(CCCl)CCCl)O[Si](C)(C)OC(=O)N(CCCl)CCCl`, for which the T/C was 108 % of control (dose: 6.25 mg/kg/injection, schedule: Q01DX009 (ip), vehicle: saline with Tween-80); 124 % of control under setting [15]; 165 % of control under setting [5]; 115 % of control under setting [6].
On to `C[n+]1ccc(/C=C/c2ccccc2)cc1`, for which the T/C runs as follows: under setting [5], 95 % of control; under setting [6], 90 % of control; under setting [8], 95 % of control; under setting [13], 97 % of control.
Regarding `CCCCCCCCCCN1COC2Cc3ccccc3CC21` (stereo unspecified), the T/C is 99 % of control (dose: 50.0 mg/kg/injection, schedule: Q01DX005 (ip), vehicle: saline); 100 % of control (dose: 100.0 mg/kg/injection, schedule: Q01DX005 (ip), vehicle: saline); 100 % of control (dose: 200.0 mg/kg/injection, schedule: Q01DX005 (ip), vehicle: saline).
For the compound `O=C(NC(Cc1ccc(I)cc1)C(=O)O)c1cccc(Cl)c1` (stereo unspecified), the T/C runs as follows: under setting [16], 99 % of control; under setting [17], 108 % of control; (dose: 200.0 mg/kg/injection, schedule: Q01DX005 (ip), vehicle: Klucel (hydroxypropylcellulose) (HPC)) 108 % of control.
As for `COc1ccc2nc3cc(Cl)ccc3c(NCCCCCCNc3c4ccc(Cl)cc4nc4ccc(OC)nc34)c2n1`, the T/C by setting is: (dose: 50.0 mg/kg/injection, schedule: Q01DX009 (ip), vehicle: Klucel (hydroxypropylcellulose) (HPC)) 93 % of control; (dose: 100.0 mg/kg/injection, schedule: Q01DX009 (ip), vehicle: Klucel (hydroxypropylcellulose) (HPC)) 105 % of control.
Consider `CN1CC(NC(=O)N(CCCl)N=O)CC2c3cccc4c3c(cn4N=O)CC21` (stereo unspecified), for which the T/C is 166 % of control (dose: 50.0 mg/kg/injection, schedule: Q01DX001 (ip), vehicle: Klucel (hydroxypropylcellulose) (HPC)); 166 % of control and 201 % of control (dose: 100.0 mg/kg/injection, schedule: Q01DX001 (ip), vehicle: Klucel (hydroxypropylcellulose) (HPC)); 166 % of control (dose: 200.0 mg/kg/injection, schedule: Q01DX001 (ip), vehicle: Klucel (hydroxypropylcellulose) (HPC)).
Regarding `[O-][n+]1onc2ccccc21`, the T/C was 103 % of control (dose: 25.0 mg/kg/injection, schedule: Q04DX002 (ip), vehicle: saline with Tween-80); 109 % of control under setting [7]; 90 % of control under setting [9].
Consider `CC1CN1P(=O)(N1CC2CCC(CC2)C1)N1CC1C` (stereo unspecified), for which the T/C was 109 % of control (dose: 6.25 mg/kg/injection, schedule: Q01DX009 (ip), vehicle: saline); 95 % of control (dose: 12.5 mg/kg/injection, schedule: Q01DX009 (ip), vehicle: saline); 104 % of control (dose: 25.0 mg/kg/injection, schedule: Q01DX009 (ip), vehicle: saline); 122 % of control under setting [12]; 90 % of control under setting [14].

The values above are taken from PubChem BioAssay AID330 (DTP/NCI, 2004).
